For experiment [1], the system named is bovine microtubule protein (tubulin plus MAP). In words: In vitro ED50 MT polymerization study (DAPI fluorescence tubulin assay). It is filed as biochemical. To be noted: for ED50 Compound/ED50 Paclitaxel: ratio of tubulin polymerization ED50 to that of paclitaxel; for EC50: tubulin polymerization, 37° C., 30 minutes, maximum assembly = 25 μM paclitaxel. Here is the method:
In this tubulin binding assay, microtubule protein (MTP) is used as a substrate. The assay contains bovine tubulin plus microtubule associated proteins (MAP). MTP is polymerized into microtubules in the presence of DAPI (4′,6′-diamidino-2-phenylindole), a fluorescent compound. DAPI binds to tubulin; when microtubules are formed and there is an enhancement of fluorescence. The microtubule formation is measured as a function of time, using a fluorescence plate reader. […] The method used is based on the procedure published by Donna M. Barron, et al, “Fluorescence-based high-throughput assay for antimicrotuble drugs” Analytical Biochemistry, 315: 49-56, 2003, which is incorporated by reference in its entirety. The excitation wavelength, in that assay, was set at 370 nm and the emission wavelength was set at 450 nm for the DAN experiments.
A Bio-Tek FL 600 microplate Fluorescence used to measure the relative level of fluorescence in the DAPI assay.
Assays were conducted in 96-well plates. Each well contained a total volume of 0.1 mL consisting of PEM buffer (0.1 M Pipes, 1 mM EGTA, 1 mM MgCl2, pH 6.9), 0.2 mg bovine microtubule protein, and 10 μg of DAPI. […] The final DMSO concentration was 4%. The plates were incubated at 37° C. for 30 minutes and read in a fluorescence plate reader using an excitation wavelength of 360 nm and an emission wavelength of 460 nm. Fluorescence values were corrected for the sample without compound.
Experiments were done twice in triplicate. Results were subsequently combined and fit to a non-linear regression program.

For experiment [2], the system named is Squamous Cell Carcinoma FADU. In words: Inhibition of cell growth, squamous cell carcinoma FADU. It is filed as cell-based. The following applies: Homo sapiens, concentration 0.05 ug/mL. From the text: (§1) Of note is the top part of the molecule illustrated above, which may be seen to have a 9-keto structure and 10-β hydroxy or 10-β acetoxy stereochemistry. The present application provides novel taxane analogs having a stereochemistry at the C-9 and C-10 OH positions of the molecule.

For experiment [3], the system named is Breast Cancer MCF-7 NCI-AR. Kind of experiment: Inhibition of cell growth, breast cancer MCF-7 NCI-AR (MDR+, wild type tubulin). It is filed as cell-based. The following applies: Homo sapiens.
Description: as §1

In experiment [4] the test system is Ovarian Carcinoma 1A9PTX10. Kind of experiment: Inhibition of cell growth, ovarian carcinoma 1A9PTX10 (MDR-, mutant tubulin). The following applies: Homo sapiens, 1A9/ptx-10. It is filed as cell-based.
Description: as §1

The test system of the next experiment is Neuroblastoma SK-N-AS. In words: Inhibition of cell growth, neuroblastoma SK-N-AS. Format: cell-based. The following applies: Homo sapiens, concentration 0.1 ug/mL.
Description: as §1

The subject of a further experiment is breast MDA435s. In words: MTS proliferation assay, MDA435s. The following applies: 48 to 72 hrs. Format: cell-based. Here is the method:
(§2) Day 1: Cells were plated in appropriate growth medium at 5×10^3 per well in 100 ul in 96 well tissue culture plates, Falcon, one for each drug to be tested. Col 1 was blank; it contained no cells, just medium. The plates were incubated overnight at 37° C., 5% CO2 to allow attachment,
(§3) Day 2: Added 120 ul growth medium in wells of 96-well “dilution plates” (one for each drug) and let sit in 37° C. incubator for about 1 hr.
(§4) Thawed DMSO drug stocks (usually at 10 mM). Each drug was diluted 6 ul into a tube with 3 ml growth medium, to 20 uM.
(§5) Aspirated medium from col 12 of a dilution plate; added 200-300 ul of 20 uM drug to wells of col 12. Made serial dilution down this 96-well plate: for a […] dilution pattern, moved 60 ul from col 12 to col 11, mixed 4-5 times (using 8 place multi-pipettor), moved 60 ul to col 10, etc. stopping at col 3.
(§6) Moved 100 ul of medium+drug from dilution plate to a cell plate, i.e. col 1 from drug plate (blank=no cells) to col 1 of cell plate, etc. up to col 12. Col 2 contained cells with no drug. Col 3 had the lowest concentration of drug (0.005 nM) and col 12 had the highest drug concentration (10 uM).
(§7) Day 4 or 5: Terminated the assay 48 to 72 hrs after drug addition. […] When the color turned dark in control wells (col 2), and was still light in col 12, the absorbance at 490 nm was read on a plate reader; the results were used to calculate IC50.
(In general: Tetrazolium assays rely on reduction of a dye to a coloured formazan, in cell work by metabolically active cells.)

The test system of another experiment is prostate DU145. Kind of experiment: MTS proliferation assay, DU145. It is filed as cell-based. The following applies: Homo sapiens, DU-145, 48 to 72 hrs. Here is the method: as §2, §3, §4, §5, §6, §7
Another experiment relates to head/neck FADU. In words: MTS proliferation assay, FADU. It is filed as cell-based. The following applies: Homo sapiens, 48 to 72 hrs. Here is the method:
as §2, §3, §4, §5, §6, §7

The test system of the next experiment is colon HT29. In words: MTS proliferation assay, HT29. Format: cell-based. The following applies: Homo sapiens, HT-29, 48 to 72 hrs. Here is the method: as §2, §3, §4, §5, §6, §7
In another experiment the test system is prostate PC-3. In words: MTS proliferation assay, PC-3. It is filed as cell-based. The following applies: prostate PC-3, MTS, 48 to 72 hrs. The protocol: as §2, §3, §4, §5, §6, §7
Experiment [5] can be described thus: Biological evaluation of separated isomers of Formula 48 (activity comparison). The following applies: separated diastereoisomer vs mixture.
Another experiment relates to Neuroblastoma SKNAS. Kind of experiment: MTS proliferation assay, SKNAS. The following applies: Homo sapiens, SK-N-AS, 48 to 72 hrs. It is filed as cell-based. Here is the method:
as §2, §3, §4, §5, §6, §7

The next experiment concerns head/neck KB. In words: MTS proliferation assay, KB. The following applies: 48 to 72 hrs. Format: cell-based. The protocol:
as §2, §3, §4, §5, §6, §7

The subject of the next experiment is uterine MESSA. In words: MTS proliferation assay, MESSA. Format: cell-based. The following applies: Homo sapiens, MES-SA, 48 to 72 hrs. Here is the method:
as §2, §3, §4, §5, §6, §7

The subject of the next experiment is uterine MESSA/Dox (MDR+). Kind of experiment: MTS proliferation assay, MESSA/Dox (MDR+). Format: cell-based. The following applies: Homo sapiens, MES-SA, 48 to 72 hrs. Here is the method: as §2, §3, §4, §5, §6, §7
The subject of the next experiment is head/neck KBV (MDR+). In words: MTS proliferation assay, KBV (MDR+). Format: cell-based. To be noted: 48 to 72 hrs. Here is the method:
as §2, §3, §4, §5, §6, §7

The term EC50 denotes the concentration that produces a half-maximal response. As to `C/C(=C\c1csc(C)n1)[C@@H]1C[C@@H]2O[C@]2(C)CCC[C@H](C)[C@H](O)[C@@H](C)C(=O)C(C)(C)[C@@H](O)CC(=O)O1` [Epothilone B], in [1], the “ED50 Compound/ED50 Paclitaxel” value is 1.11 and the EC50 is 3310 ± 510 nM.

As for `CC(=O)O[C@@]12CO[C@@H]1C[C@H](O)[C@@]1(C)C(=O)[C@H](O)C3=C(C)[C@@H](OC(=O)[C@H](O)[C@@H](NC(=O)OC(C)(C)C)c4ccccc4)C[C@@](O)([C@@H](OC(=O)c4ccccc4)[C@H]21)C3(C)C` [Docetaxel], in experiment [1], the “ED50 Compound/ED50 Paclitaxel” value was 1.07 and the concentration giving a half-maximal response (EC50) was 3180 ± 450 nM.

The term inhibition denotes the share of the control response that was lost under treatment. A low value points to a weak effect. In experiment [2], `CC(=O)O[C@H]1C(=O)[C@@]2(C)[C@H]([C@H](OC(=O)c3ccccc3)[C@]3(O)C[C@H](OC(=O)[C@H](O)[C@@H](NC(=O)c4ccccc4)c4ccccc4)C(C)=C1C3(C)C)[C@]1(OC(C)=O)CO[C@@H]1C[C@@H]2O` [Paclitaxel, reference compound] returned an inhibition at 0.05 µg/mL of 47%. Moreover, in [3] (MCF7, concentration 40 ug/mL), the inhibition at 40 µg/mL turned out to be 55%. The same molecule had an inhibition at 5 µg/mL in [4] (1A9PTX10, concentration 5 ug/mL) of 55%. For the same molecule, the inhibition at 0.1 µg/mL in the experiment on Neuroblastoma SK-N-AS turned out to be 54%.

On to `C=CC1O[C@H]2C[C@H]3OC[C@@]3(OC(C)=O)[C@H]3[C@H](OC(=O)c4ccccc4)[C@]4(O)C[C@H](OC(=O)[C@H](O)[C@@H](NC(=O)c5ccccc5)c5ccccc5)C(C)=C([C@H](OC(C)=O)[C@H](O1)[C@]23C)C4(C)C` (some centres unmarked) [Formula 45], for which the inhibition at 0.5 µg/mL in experiment [3] (MCF7, concentration 0.5 ug/mL) was 45%; in experiment [4] (1A9PTX10, concentration 0.5 ug/mL), 96%. Also, testing at 1 µg/mL in experiment [3] (MCF7, concentration 1.0 ug/mL) gave an inhibition of 65%. This molecule also came in with an inhibition at 2 µg/mL in experiment [3] (MCF7, concentration 2.0 ug/mL) of 94%. The molecule also showed an inhibition at 0.25 µg/mL in experiment [4] (1A9PTX10, concentration 0.25 ug/mL) of 93%.

The term IC50 denotes the concentration at which inhibition is half-maximal. Turning to `C=C[C@H]1O[C@H]2C[C@H]3OC[C@@]3(OC(C)=O)[C@H]3[C@H](OC(=O)c4ccccc4)[C@]4(O)C[C@H](OC(=O)[C@H](O)[C@H](CC(C)C)NC(=O)OC(C)(C)C)C(C)=C([C@H](OC(C)=O)[C@H](O1)[C@]23C)C4(C)C` [Formula S-31], the half-inhibitory concentration (IC50) with breast MDA435s worked out at 10 nM; in the experiment on prostate DU145 it was 60 nM; in the experiment with head/neck FADU it was 21 nM; in the experiment with colon HT29 it was 0.006 nM; in the experiment with prostate PC-3, 0.03 nM; in the experiment on Neuroblastoma SKNAS, 11 nM. Besides, the IC50 was found to be 9.4 nM with head/neck KB, 2.9 nM in the experiment on uterine MESSA, 44.8 nM in the experiment with uterine MESSA/Dox (MDR+) and 553 nM in the experiment with head/neck KBV (MDR+). The “activity compared with the isomeric mixture (Formula 48)” value in experiment [5] was “significantly more active than the isomeric mixture”. The “ED50 Compound/ED50 Paclitaxel” value in [1] came out at 0.53. In [1], the EC50 is 1580 ± 460 nM.
